Results published in US8546348B2, “Upregulation of opioid receptors for management” (The Board of Regents of the University of Texas System, priority 2003, dated 2013).
Where “and” joins values, the source holds several entries; their conditions need not be identical. Equal entries are not always repeated. Where two headings read alike, the source gives them in different places.

Legend:
[1] = system: high-threshold voltage-dependent Ca^2+ channels in DRG neurons; assay: Perforated patch recording of DAMGO block of Ba2+ currents in cultured DRG neurons; format: cell-based, rat; details: for IC50: read-out: apparent affinity for DAMGO inhibition (IC50)
Experimental: Cells were superfused (2 ml/min) at 23-24° C. with external solution containing 130 mM tetraethylammonium (“TEA”) chloride, 5 mM CsCl, 1.5 mM BaCl2, 1 mM MgCl2, 10 mM Hepes, and 10 mM glucose (pH 7.2, adjusted with TEA-OH; osmolarity, 300 mosM). Patch electrodes (resistance, 2.2-3.5 MΩ) were filled with internal solution containing 100 mM CsMeSO3, 40 mM CsCl, 10 mM Hepes, and 300 μg/ml amphotericin B (pH=7.3 adjusted with CsOH, 320 mosM). The currents were filtered at 2-5 kHz and sampled at 100 μs per point. [D-Ala^2,N-MePhe^4,Gly^5-ol]enkephalin (“DAMGO”) was pressure delivered to the recorded cells through a drug applicator (8).
All data were expressed as mean±SEM. Paw withdrawal latencies obtained from different rats were averaged. Changes before and after morphine treatment within one rat group were analyzed with one-way ANOVA followed by post hoc Newman-Keuls analysis. Antinociceptive responses were expressed as maximum possible effect (“MPE”) by using the relation MPE=(postdrug PWL−baseline PWL)/(cutoff PWL−baseline PWL)×100. Dose-response curves were plotted as MPE vs. dose and fitted with the logistic equation. The doses estimated to produce 50% MPE, A50, and 95% confidence intervals were determined. The dose-response curves for DAMGO in current measurements were fitted with the Hill equation, i.e., response=(max−min)×[IC50/(IC50^n+dose^n)]+min, where max and min are maximal and minimal responses, IC50 is the dose for 50% of the block, and n is the Hill coefficient. The 95% confidence band analysis was used to evaluate the significance of the change in the IC50 and maximal block. To assess the significance of changes between two means, the Student's t test was used. A p<0.05 was considered significant.
It is well established that μ-opioids inhibit high-threshold voltage-dependent Ca^2+ currents in DRG neurons. […] Seven days after the infection, perforated patch whole-cell recordings were performed on the cells. External Ca^2+ was replaced by Ba^2+ to avoid rapid rundown of current responses.

[2] = system: spared nerve injury (SNI) rats; assay: Mechanical allodynia (von Frey) in SNI rats treated with rAAV-δOR, intrathecal deltorphin or morphine; format: in vivo, rat
Experimental: Similar method as described before was used to induce inflammation To produce the nerve-injury in the rat paw, spared nerve injury (SNI) in rats was generated by transecting the sural and common peroneal sciatic nerves in the left rat leg while leaving the tibal nerve intact. To induce inflammation in the trigeminal nerve innervated areas, rats were lightly anesthetized with pentobarbital. CFA (10-50 μl) was injected into the rat temporomandibular joint (TMJ) 3-4 weeks after infection of rAAV-dOR. Behavioral experiments were performed 5-14 days after the CFA injection. To induce spare nerve injury in the trigeminal nerve, the infraorbital nerve branch of the maxillary nerve was ligated and the ophthalmic and mandibular nerves were left intact.
δ-opioid receptor expression was enhanced in dorsal root ganglia (DRGs) by injecting rAAV-dOR into the ganglion or into the sciatic nerve or by injecting dOR-FLAG DNA intrathecally. The δ-OR receptor expression was enhanced in the trigeminal ganglon by injecting rAAV-dOR into the trigeminal ganglion or into the maxillary nerve.
Three to four weeks later, the effects of morphine or other analgesic drugs on mechanical allodynia in SNI rats were determined behaviorally. Rat hindpaw withdrawal (PW) thresholds in response to stimulation of Von Frey filaments were measured. Each test consisted of applications of a series of von Frey filaments (ranging from 0.4 to 15.0 g) to the lateral plantar surface of the tested paw until it withdrew or for a maximum of 60 s. To avoid injury during tests, the cutoff strength of the von Frey filament was 15 g. The up and down method described by Chaplan et al. (12) was used to determine the PW threshold. Mechanical threshold or the maximum possible effect (MPE), i.e., ((test−min)/(max−min)]×100%, was used to calculate morphine mechanical analgesic effects.

[3] = system: injured rats (sciatic nerve ligation); details: Kabli and Cahill; cited from earlier work
[4] = system: rats (thermal nociceptive responses); assay: Paw withdrawal latency to radiant heat, s.c. morphine, rats with rAAV injected into L4-L5 ganglia; format: in vivo, rat; details: 4 mg/kg morphine, non-CFA rats
[5] = system: rats (inflammatory pain, CFA); assay: Morphine antinociception (MPE, radiant heat) in CFA rats after DRG or sciatic nerve injection of rAAV; format: in vivo, rat; details: s.c. morphine, rAAV injected into DRGs
[6] = system: rats (thermal hyperalgesia, CFA); assay: Paw withdrawal latency to radiant heat, intrathecal morphine, rats with rAAV injected into the sciatic nerve; details: rat, in vivo
[7] = system: spared nerve injury (SNI) rats; assay: Mechanical allodynia (von Frey) in spared nerve injury rats, intrathecal morphine, rAAV-μOR; format: in vivo, rat; details: intrathecal 1-10 μg, SNI rats without rAAV

C[C@@H](NC(=O)[C@@H](N)Cc1ccc(O)cc1)C(=O)NCC(=O)N(C)[C@@H](Cc1ccccc1)C(=O)NCCO [DAMGO, [D-Ala^2,N-MePhe^4,Gly^5-ol]enkephalin]
IC50 ([1]; rAAV-EGFP cells): 530 ± 30 nM
percentage of cells responded to DAMGO inhibition ([1]; rAAV-EGFP-treated cells): 54.5%
maximal block of Ba2+ currents ([1]; rAAV-μOR cells, Hill fit): 31.63% and 31.63±0.03%
IC50 ([1]; rAAV-μOR cells): 170 ± 60 nM
percentage of cells responded to DAMGO inhibition ([1]; rAAV-μOR-treated DRG neurons): 89.2%
percentage of cells responded to DAMGO inhibition ([1]; untreated cells): 57.1%
IC50 ([1]; untreated cells): 640 ± 190 nM

CC(C)[C@H](NC(=O)[C@H](CCC(=O)O)NC(=O)[C@H](Cc1ccccc1)NC(=O)[C@@H](C)NC(=O)[C@@H](N)Cc1ccc(O)cc1)C(=O)N[C@H](C(=O)NCC(=O)O)C(C)C [deltorphin]
reduction of allodynic responses ([2]; SNI rats): rather ineffective
reduction of allodynic responses ([2]; SNI rats, listed as Deltorphin): ineffective
reduction of allodynic responses ([2]; rAAV-δOR treated SNI rats): became effective
time for which the drug is effective in reducing allodynic responses [3]: 21 days

CN1CC[C@]23c4c5ccc(O)c4O[C@H]2[C@@H](O)C=C[C@H]3[C@H]1C5 [morphine]
time at which antinociceptive effects reached a maximum [4]: 30 to 40 min
time in which antinociceptive effects dissipated [4]: 80 to 90 min
time at which MPEs peaked [5]: 30 to 40 min
time within which MPEs dissipated [5]: 100 to 120 min and 100 min
time after which the effect dissipated [6]: 50 min
time at which MPE peaked [6]: 15 to 20 min
relief of mechanical allodynia [7]: not effective
time for which the drug is effective in reducing allodynic responses [3]: 14 days
